The values below are quoted from earlier work in patent US11571414B2, “Methods of treating respiratory illnesses, alleviating inflammation and visceral pain, and alleviating opioid addiction while suppressing withdrawal symptoms” (priority 2019, dated 2023).

For this data set, the system named is μ-opioid receptor and the nociception receptor. The conditions noted are these: nonhuman primates.

Regarding `CC(C)C1CCC(N2CCC3(CC2)C(=O)N(CCNS(N)(=O)=O)Cc2ccccc23)CC1` (centres unmarked) [AT-121], the addictive effects entry was “suppresses the addictive effects” and the analgesic effects entry is reported as “morphine-like analgesic effects”.
